pIC50: −log10 of the molar value. Active and inactive are the calls of the source. The rule behind the calls is not given here.
Assays:
Homo sapiens [1] = species: Homo sapiens; assay: (§1) Inhibition of LPS-induced MEK phosphorylation in primary human monocytes by immunoblot analysis; format: cell-based
Homo sapiens [2] = species: Homo sapiens; assay: (§2) Inhibition of LPS-induced ERK phosphorylation in primary human monocytes by immunoblot analysis; format: cell-based
[3] = molecular target: Mitogen-activated protein kinase kinase kinase 8 (Homo sapiens, UniProt P41279); assay: Inhibition of human Tpl2 by ELISA
[4] = as §1; format: cell-based
[5] = as §2; format: cell-based
HeLa [6] = assay: Inhibition of TNF-alpha-induced ERK phosphorylation in human HeLa cells by immunoblot analysis; format: functional, cell-based
[7] = Inhibition of TNF-alpha-stimulated PGE2 production in human RA-FLS cells by immunoblot analysis; format: functional, cell-based
Stromelysin-1 = Stromelysin-1 (Homo sapiens, UniProt P08254); assay: Inhibition of IL-1-beta-stimulated MMP3 in human RA-FLS cells by immunoblot analysis; format: cell-based
[8] = molecular target: Dual specificity mitogen-activated protein kinase kinase 1 (Oryctolagus cuniculus, UniProt P29678); assay: Inhibition of rabbit MEK1 by ELISA
[9] = molecular target: Mitogen-activated protein kinase 14 (Homo sapiens, UniProt Q16539); assay: Inhibition of human p38alpha by ELISA
[10] = molecular target: Proto-oncogene tyrosine-protein kinase Src (Homo sapiens, UniProt P12931); assay: Inhibition of human Src by ELISA
[11] = Inhibition of human CaMK2 by ELISA
[12] = Inhibition of human PKA by scintiplate assay
[13] = molecular target: Protein kinase C alpha type (Homo sapiens, UniProt P17252); assay: Inhibition of human PKCalpha by scintiplate assay
[14] = molecular target: T1, MAP kinase-activated protein kinase 2 (Homo sapiens, UniProt P49137); assay: Inhibition of human MK2 by scintiplate assay
Target sequence in this assay (P49137 whole entry): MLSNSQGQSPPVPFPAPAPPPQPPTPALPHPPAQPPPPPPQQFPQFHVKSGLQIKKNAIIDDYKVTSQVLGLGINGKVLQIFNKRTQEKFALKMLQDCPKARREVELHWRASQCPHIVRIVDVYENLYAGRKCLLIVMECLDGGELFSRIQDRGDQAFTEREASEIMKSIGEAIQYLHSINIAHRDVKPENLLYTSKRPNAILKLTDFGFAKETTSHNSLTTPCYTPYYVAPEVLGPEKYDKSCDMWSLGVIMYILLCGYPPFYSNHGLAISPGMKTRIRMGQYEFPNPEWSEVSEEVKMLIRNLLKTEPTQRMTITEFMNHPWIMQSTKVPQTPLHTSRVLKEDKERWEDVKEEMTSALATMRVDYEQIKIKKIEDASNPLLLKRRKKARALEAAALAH

[15] = Inhibition of human S6K by scintiplate assay
[16] = Inhibition of human JNK1alpha by scintiplate assay
[17] = molecular target: T2, Dual specificity mitogen-activated protein kinase kinase 6 (Homo sapiens, UniProt P52564); assay: Inhibition of human MKK6 by ELISA
T2 sequence (P52564 whole entry): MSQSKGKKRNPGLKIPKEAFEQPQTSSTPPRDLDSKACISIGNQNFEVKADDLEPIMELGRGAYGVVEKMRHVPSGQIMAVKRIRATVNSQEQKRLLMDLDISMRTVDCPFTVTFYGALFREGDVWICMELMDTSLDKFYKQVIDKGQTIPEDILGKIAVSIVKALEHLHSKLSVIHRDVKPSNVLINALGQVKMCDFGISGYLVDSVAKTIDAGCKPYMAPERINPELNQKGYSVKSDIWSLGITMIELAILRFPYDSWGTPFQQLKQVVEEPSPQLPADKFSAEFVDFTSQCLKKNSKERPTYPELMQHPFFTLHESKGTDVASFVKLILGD

[18] = molecular target: T3, Inhibitor of nuclear factor kappa-B kinase subunit beta (Homo sapiens, UniProt O14920); assay: Inhibition of human IKK-beta by ELISA
T3 sequence (O14920 whole entry): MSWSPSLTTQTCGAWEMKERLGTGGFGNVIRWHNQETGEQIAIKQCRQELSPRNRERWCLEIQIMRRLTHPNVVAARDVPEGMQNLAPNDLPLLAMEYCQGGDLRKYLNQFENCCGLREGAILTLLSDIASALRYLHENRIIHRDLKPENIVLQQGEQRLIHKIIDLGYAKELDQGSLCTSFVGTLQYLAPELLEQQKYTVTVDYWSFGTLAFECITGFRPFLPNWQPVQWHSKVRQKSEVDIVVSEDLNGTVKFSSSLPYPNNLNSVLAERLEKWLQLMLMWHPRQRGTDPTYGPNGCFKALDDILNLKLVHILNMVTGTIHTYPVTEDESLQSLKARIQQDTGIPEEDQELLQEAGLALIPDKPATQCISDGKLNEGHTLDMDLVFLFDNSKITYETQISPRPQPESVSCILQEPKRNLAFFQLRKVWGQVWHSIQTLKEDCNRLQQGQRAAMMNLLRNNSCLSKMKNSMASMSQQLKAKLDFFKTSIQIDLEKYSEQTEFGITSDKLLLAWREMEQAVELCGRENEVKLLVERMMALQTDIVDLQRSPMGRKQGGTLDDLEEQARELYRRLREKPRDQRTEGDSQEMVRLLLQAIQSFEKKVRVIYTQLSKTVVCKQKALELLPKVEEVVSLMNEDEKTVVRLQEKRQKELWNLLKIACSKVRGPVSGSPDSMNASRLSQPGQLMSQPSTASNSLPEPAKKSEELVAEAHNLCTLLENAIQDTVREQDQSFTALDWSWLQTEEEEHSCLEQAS

[19] = molecular target: RAF proto-oncogene serine/threonine-protein kinase (Homo sapiens, UniProt P04049); assay: Inhibition of human Raf1
HeLa [20] = assay: Inhibition of IL8 production in human Tpl2 expressing HeLa cells after 17 hrs by ELISA; format: functional, cell-based
HeLa [21] = assay: Inhibition of human MEK phosphorylation in Tpl2 transfected HeLa cells; format: cell-based
HeLa [22] = assay: Inhibition of human ERK phosphorylation in Tpl2 transfected HeLa cells; format: cell-based
HeLa [23] = assay: Cytotoxicity against human HeLa cells; format: functional, cell-based
[24] = molecular target: MAP kinase p38 (Homo sapiens) (UniProt O15264+Q15759+Q16539+P53778); assay: Inhibition of LPS-induced p38 phosphorylation in primary human monocytes upto 5 uM by immunoblot analysis; format: cell-based
[25] = molecular target: T1, MAP kinase-activated protein kinase 2; assay: Inhibition of LPS-induced MK2 phosphorylation in primary human monocytes upto 5 uM by immunoblot analysis; format: cell-based
Target sequence in this assay (P49137 whole entry, looked up): as the sequence (P49137 whole entry) above

Homo sapiens [26] = species: Homo sapiens; assay: Inhibition of LPS-induced c-Jun phosphorylation in primary human monocytes upto 5 uM by immunoblot analysis; format: cell-based
[27] = molecular target: T4, NF-kappa-B inhibitor alpha (Homo sapiens) (UniProt P25963); assay: Inhibition of LPS-induced IkappaBalpha phosphorylation in primary human monocytes upto 5 uM by immunoblot analysis; format: cell-based
T4 sequence (whole entry): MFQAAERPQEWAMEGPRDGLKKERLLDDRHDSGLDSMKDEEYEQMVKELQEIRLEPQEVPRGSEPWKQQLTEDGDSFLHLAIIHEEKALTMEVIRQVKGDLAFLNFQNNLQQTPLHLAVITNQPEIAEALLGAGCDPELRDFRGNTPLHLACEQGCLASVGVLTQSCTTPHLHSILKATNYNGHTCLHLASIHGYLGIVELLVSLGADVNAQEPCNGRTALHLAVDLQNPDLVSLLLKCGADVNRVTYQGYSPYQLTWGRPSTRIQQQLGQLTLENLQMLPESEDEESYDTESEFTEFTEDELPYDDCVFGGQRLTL

Homo sapiens [28] = species: Homo sapiens; assay: Effect on ERK activation in LPS-induced tpl2-/- mouse peritoneal macrophages
HEK293 [29] = assay: Inhibition of TNF-induced NF-kappaB activation in HEK293 cells upto 10 uM by luciferase assay; format: cell-based; settings: Homo sapiens
HEK293 [30] = assay: Inhibition of IL-1-beta-induced NF-kappaB activation in HEK293 cells upto 10 uM by luciferase assay; format: cell-based; settings: Homo sapiens
Homo sapiens [31] = species: Homo sapiens; assay: Inhibition of PMA-induced MEK phosphorylation in primary human monocytes by immunoblot analysis; format: cell-based
Homo sapiens [32] = species: Homo sapiens; assay: Inhibition of PMA-induced ERK phosphorylation in primary human monocytes by immunoblot analysis; format: cell-based
Monocyte [33] = assay: Inhibition of LPS-induced TNFalpha production in primary human monocytes; format: functional, cell-based
Monocyte [34] = assay: Inhibition of IL-1-beta-induced TNFalpha production in primary human monocytes; format: functional, cell-based
Monocyte [35] = assay: (§3) Inhibition of LPS-induced IL12p40 production in primary human monocytes; format: functional, cell-based
Monocyte [36] = assay: (§4) Inhibition of IL-1-beta-induced IL12p40 production in primary human monocytes at 5 uM; format: functional, cell-based
Monocyte [37] = assay: as §3; format: functional
Monocyte [38] = assay: as §4; format: functional
Blood [39] = assay: Inhibition of LPS-induced TNFalpha production in human blood; format: functional, tissue-based
Blood [40] = assay: Inhibition of IL-1-beta-induced TNFalpha production in human blood; format: functional, tissue-based
[41] = Cytotoxicity against primary human monocytes at 5 uM; format: cell-based; settings: monocyte
[42] = Inhibition of IL-1-beta-induced MEK phosphorylation in primary human monocytes by immunoblot analysis; format: cell-based
[43] = Inhibition of IL-1-beta-induced ERK phosphorylation in primary human monocytes by immunoblot analysis; format: cell-based
Mus musculus = species: Mus musculus; assay: Effect on IL-1-beta-induced ERK phosphorylation in 129S5 mouse thioglycollate elicited peritoneal macrophages
[44] = Inhibition of IL-1-beta-stimulated ERK phosphorylation in shuman RA-FLS cells by immunoblot analysis; format: cell-based; settings: Homo sapiens
RA-FLS [45] = assay: Inhibition of IL-1-beta-stimulated COX2 expression in human RA-FLS cells after 4 hrs by immunoblot analysis; format: functional, cell-based
RA-FLS [46] = assay: Inhibition of IL-1-beta-stimulated PGE2 production in human RA-FLS cells after 4 hrs by ELISA; format: functional, cell-based
[47] = Cytotoxicity against human RA-FLS cells at =< 10 uM; format: cell-based
[48] = Inhibition of IL-1-beta-stimulated IL6 production in human RA-FLS cells by immunoblot analysis; format: functional, cell-based
[49] = Inhibition of IL-1-beta-stimulated IL8 production in human RA-FLS cells by immunoblot analysis; format: functional, cell-based
[50] = Inhibition of IL-1-beta-stimulated PGE2 production in human RA-FLS cells by immunoblot analysis; format: functional, cell-based
[51] = Inhibition of IL-1-beta-stimulated MMP1 in human RA-FLS cells by immunoblot analysis; format: functional, cell-based
HeLa [52] = assay: Inhibition of TNF-alpha-induced IL8 production in human HeLa cells after 4 hrs; format: functional, cell-based

Mitogen-activated protein kinase kinase kinase 8, sequence (P41279 whole entry): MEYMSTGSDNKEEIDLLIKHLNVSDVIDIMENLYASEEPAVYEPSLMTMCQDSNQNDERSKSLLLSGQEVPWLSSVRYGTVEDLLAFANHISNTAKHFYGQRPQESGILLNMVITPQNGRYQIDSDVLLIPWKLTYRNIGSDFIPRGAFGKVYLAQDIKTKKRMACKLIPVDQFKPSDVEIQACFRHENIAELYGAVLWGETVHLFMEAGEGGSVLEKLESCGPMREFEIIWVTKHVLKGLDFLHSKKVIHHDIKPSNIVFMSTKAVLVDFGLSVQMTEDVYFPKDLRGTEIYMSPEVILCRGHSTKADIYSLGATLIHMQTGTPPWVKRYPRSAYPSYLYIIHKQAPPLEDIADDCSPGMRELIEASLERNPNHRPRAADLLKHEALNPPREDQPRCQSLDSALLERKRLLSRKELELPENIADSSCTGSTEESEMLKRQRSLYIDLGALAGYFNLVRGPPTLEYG
Mitogen-activated protein kinase 14, sequence (Q16539 whole entry): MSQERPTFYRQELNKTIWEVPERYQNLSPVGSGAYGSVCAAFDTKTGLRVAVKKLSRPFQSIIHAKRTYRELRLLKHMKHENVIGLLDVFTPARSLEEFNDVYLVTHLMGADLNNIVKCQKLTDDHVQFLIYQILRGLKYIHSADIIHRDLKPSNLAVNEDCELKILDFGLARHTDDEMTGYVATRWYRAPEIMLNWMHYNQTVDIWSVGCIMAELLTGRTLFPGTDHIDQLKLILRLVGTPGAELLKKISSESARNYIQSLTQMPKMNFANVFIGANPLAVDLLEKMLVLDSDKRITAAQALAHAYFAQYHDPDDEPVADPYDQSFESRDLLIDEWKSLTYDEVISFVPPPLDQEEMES
Proto-oncogene tyrosine-protein kinase Src, sequence (P12931 2-536 limits assumed): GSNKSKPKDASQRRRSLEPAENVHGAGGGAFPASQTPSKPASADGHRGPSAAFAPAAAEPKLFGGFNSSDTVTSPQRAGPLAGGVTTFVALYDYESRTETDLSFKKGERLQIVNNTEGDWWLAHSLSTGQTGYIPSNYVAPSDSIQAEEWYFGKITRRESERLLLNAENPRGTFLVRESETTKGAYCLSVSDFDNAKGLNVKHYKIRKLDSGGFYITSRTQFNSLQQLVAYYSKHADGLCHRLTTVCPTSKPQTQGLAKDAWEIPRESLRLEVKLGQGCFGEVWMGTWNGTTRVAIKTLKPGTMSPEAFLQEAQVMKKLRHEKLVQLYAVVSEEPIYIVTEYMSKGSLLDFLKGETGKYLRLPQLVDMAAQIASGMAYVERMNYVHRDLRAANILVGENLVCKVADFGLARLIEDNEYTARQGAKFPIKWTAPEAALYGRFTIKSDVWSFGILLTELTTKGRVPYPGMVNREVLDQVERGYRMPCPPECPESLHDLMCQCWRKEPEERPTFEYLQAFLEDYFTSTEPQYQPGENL
Stromelysin-1, sequence (P08254 whole entry): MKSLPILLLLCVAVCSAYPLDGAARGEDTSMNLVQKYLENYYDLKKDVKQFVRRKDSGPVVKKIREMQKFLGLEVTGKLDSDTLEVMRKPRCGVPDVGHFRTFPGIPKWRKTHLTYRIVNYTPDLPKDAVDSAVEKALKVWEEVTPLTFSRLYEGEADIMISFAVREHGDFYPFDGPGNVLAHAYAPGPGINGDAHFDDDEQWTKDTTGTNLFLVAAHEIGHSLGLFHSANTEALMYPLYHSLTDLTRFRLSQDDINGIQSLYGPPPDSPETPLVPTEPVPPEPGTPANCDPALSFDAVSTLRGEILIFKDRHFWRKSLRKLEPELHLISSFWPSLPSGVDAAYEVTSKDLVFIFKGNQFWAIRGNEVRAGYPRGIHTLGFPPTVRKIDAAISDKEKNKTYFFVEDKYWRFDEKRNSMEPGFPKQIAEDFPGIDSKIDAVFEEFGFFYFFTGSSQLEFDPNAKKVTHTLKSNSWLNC
RAF proto-oncogene serine/threonine-protein kinase, sequence (P04049 whole entry): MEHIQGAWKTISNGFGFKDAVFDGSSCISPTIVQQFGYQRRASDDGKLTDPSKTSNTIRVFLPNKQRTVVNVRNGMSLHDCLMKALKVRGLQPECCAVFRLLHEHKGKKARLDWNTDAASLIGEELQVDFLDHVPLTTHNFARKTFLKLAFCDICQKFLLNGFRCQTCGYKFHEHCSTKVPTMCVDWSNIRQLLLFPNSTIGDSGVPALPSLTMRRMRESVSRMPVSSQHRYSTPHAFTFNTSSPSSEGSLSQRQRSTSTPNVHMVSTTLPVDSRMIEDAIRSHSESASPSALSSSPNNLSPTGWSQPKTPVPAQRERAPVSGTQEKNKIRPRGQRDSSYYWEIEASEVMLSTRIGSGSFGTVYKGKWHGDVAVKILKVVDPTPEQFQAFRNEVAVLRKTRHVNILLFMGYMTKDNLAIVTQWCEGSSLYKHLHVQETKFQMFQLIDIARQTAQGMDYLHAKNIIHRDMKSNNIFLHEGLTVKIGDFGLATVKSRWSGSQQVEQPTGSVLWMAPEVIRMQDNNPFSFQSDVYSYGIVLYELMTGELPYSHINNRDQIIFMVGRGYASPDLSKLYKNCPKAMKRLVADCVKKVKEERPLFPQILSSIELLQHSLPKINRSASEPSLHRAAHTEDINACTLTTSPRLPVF
Dual specificity mitogen-activated protein kinase kinase 1, sequence (P29678 whole entry): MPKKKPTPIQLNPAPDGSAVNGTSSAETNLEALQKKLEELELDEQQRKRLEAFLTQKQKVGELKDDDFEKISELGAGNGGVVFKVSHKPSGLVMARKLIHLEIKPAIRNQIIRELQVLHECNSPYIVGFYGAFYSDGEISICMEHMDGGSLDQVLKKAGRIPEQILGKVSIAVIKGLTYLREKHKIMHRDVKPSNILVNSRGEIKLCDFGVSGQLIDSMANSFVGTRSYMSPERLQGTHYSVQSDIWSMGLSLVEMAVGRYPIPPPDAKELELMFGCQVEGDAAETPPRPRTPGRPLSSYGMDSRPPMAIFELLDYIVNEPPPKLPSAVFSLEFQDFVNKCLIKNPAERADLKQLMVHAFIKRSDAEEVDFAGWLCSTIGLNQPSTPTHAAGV

## C[C@H](Nc1cc2c(Nc3ccc(F)c(Cl)c3)c(C#N)cnc2cn1)c1ccccc1
Homo sapiens [1]
  Activity: inactive
Homo sapiens [2]
  Activity: inactive

## C[C@@H](Nc1cc2c(Nc3ccc(F)c(Cl)c3)c(C#N)cnc2cn1)c1ccccc1
[3]
  pIC50: 7.80
[4]
  pIC50: ≥ 6.00
[5]
  pIC50: ≥ 6.00

## N#Cc1cnc2c(Cl)cc(NCc3cnc[nH]3)cc2c1Nc1ccc(F)c(Cl)c1
HeLa [6]
  pIC50: 5.60
[7]
  pIC50: 6.15
Stromelysin-1
  pIC50: 5.64
[3]
  pIC50: 7.92
[8]
  pIC50: < 4.40
[9]
  pIC50: < 4.00
[10]
  pIC50: < 4.00
[11]
  pIC50: 4.64
[12]
  pIC50: < 4.00
[13]
  pIC50: < 4.00
[14]
  pIC50: 4.32
[15]
  pIC50: < 4.00
[16]
  pIC50: 4.19
[17]
  pIC50: < 4.00
[18]
  pIC50: 4.14
[19]
  pIC50: < 4.00
HeLa [20]
  pIC50: 6.00
HeLa [21]
  Activity: Active
HeLa [22]
  Activity: Active
HeLa [23]
  Activity: inactive
[4]
  pIC50: 6.30
[5]
  pIC50: 7.00
[24]
  Activity: inactive
[25]
  Activity: inactive
Homo sapiens [26]
  Activity: inactive
[27]
  Activity: inactive
Homo sapiens [28]
  Activity: inactive
HEK293 [29]
  Activity: inactive
HEK293 [30]
  Activity: inactive
Homo sapiens [31]
  Activity: inactive
Homo sapiens [32]
  Activity: inactive
Monocyte [33]
  pIC50: 6.22
Monocyte [34]
  pIC50: 6.15
Monocyte [35]
  pIC50: < 5.30
Monocyte [36]
  pIC50: < 5.30
Monocyte [37]
  inhibition (INH): 39%
Monocyte [38]
  inhibition at 5 µM: 30%
Blood [39]
  pIC50: 5.27
Blood [40]
  pIC50: 5.14
[41]
  Activity: Non-toxic
[42]
  pIC50: 6.30
[43]
  pIC50: 6.52
Mus musculus
  Activity: Dose-dependent effect
[44]
  pIC50: 6.52
RA-FLS [45]
  Activity: Active
RA-FLS [46]
  Activity: Active
[47]
  Activity: Non-toxic
[48]
  pIC50: 5.16
[49]
  pIC50: 5.10
[50]
  pIC50: 6.40
[51]
  pIC50: 5.40
HeLa [52]
  pIC50: 6.70

From ChEMBL document CHEMBL1156513, “Pharmacologic inhibition of tpl2 blocks inflammatory responses in primary human monocytes, synoviocytes, and blood” (J Biol Chem, 2007)
